What was measured:
HPK1 kinase [1] = molecular target: T1, HPK1 kinase (Homo sapiens, UniProt Q92918); test: Activity of degrading HPK1 in Jurkat cells (Western blot, 24 h); assay type: cell-based; set-up: endogenous in cells; host or cells: Jurkat; details: HPK1 protein degradation, class symbols
Method: The adjusted samples are added to 5*loading buffer, boiled at 100°C for 10 minutes, and then the samples are loaded after the temperature is returned to room temperature. • 4) Detection of samples: Electrophoresis is performed using 10% SDS-PAGE with a sample loading volume of 8 µL/well. After the membrane transfer is completed, the samples are blocked with 5% BSA at room temperature for 1 h. After the residual blocking solution is washed away with TBST, HPK1 and GAPDH antibodies are added for incubation overnight at 4°C. Washing is performed 3 more times with TBST on a shaker, 10 minutes each time. After washing is completed, the secondary antibody is added for incubation at room temperature for 1 hour; then, washing is performed 3 more times with TBST on a shaker, 10 minutes each time; finally, ECL exposure solution is used to develop and image the bands to detect changes in HPK1 protein.

HPK1 kinase [2] = molecular target: T1, HPK1 kinase; test: Lantha screen assay, inhibitory effect on HPK1 kinase; assay type: biochemical; details: initial compound concentration 1 µM
Procedure, shortened: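 Kinase pre-incubated with compound for 10 min at room temperature in 50 mM HEPES pH 7.5, 10 mM MgCl2, 4 mM DTT, 0.01% Tween-20, 0.01% BSA. Fluorescein-PKC substrate plus ATP then added for 90 min, stopped with antibody/EDTA for 60 min. Top concentration 1 µM; IC50 from four-parameter fit of inhibition vs log concentration.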

HPK1/GLK = test: Selectivity of degrading HPK1/GLK in Jurkat cells (Western blot, 24 h); assay type: cell-based; details: HPK1/GLK Fold = DC50 (HPK1) / DC50 (GLK)
Method: • 1) Cell plating: Cells are resuscitated, Jurkat cell lines in good growth condition are selected, and cells in the logarithmic growth phase are collected and counted; cell suspensions are seeded into 12 or 24-well plates (20W/well) and incubated overnight at 37°C in a 5% CO2 incubator. • 2) Preparation of compounds to be tested: The compounds to be tested are serially diluted with DMSO according to the experimental requirements and added to the corresponding cell wells, to be incubated at 37°C in a 5% CO2 incubator for 24 h. • 3) Preparation of samples: After the reaction of the compound to be tested is completed, the cells are collected in 1.5 mL EP tubes, and centrifuged at 1500 rpm for 5 min; after the supernatant is discarded, the cells are washed once with PBS, and the BCA protein is quantified and the concentration is adjusted. The adjusted samples are added to 5*loading buffer, boiled at 100°C for 10 minutes, and then the samples are loaded after the temperature is returned to room temperature. • 4) Detection of samples: Electrophoresis is performed using 10% SDS-PAGE with a sample loading volume of 10 µL/well. After the membrane transfer is completed, the samples are blocked with 5% skim milk at room temperature for 1 h. After the residual blocking solution is washed away with TBST, HPK1 and GLK antibodies are added for incubation overnight at 4°C. Washing is performed 3 more times with TBST on a shaker, 5 minutes each time. After washing is completed, the secondary antibody is added for incubation at room temperature in a shaker for 1 hour; then, washing is performed 3 more times with TBST on a shaker, 5 minutes each time; finally, the membrane is soaked in TBST and then subjected to chemiluminescence development. • 5) Data Processing: After the PVDF membrane is developed, the data are exported and plotted using Imang J, and the gray values of the protein bands are analyzed using Image J software; the DC50 curve is fitted using Graphpad Prism 9 software to obtain the results of the selectivity of the compound in degrading HPK1/GLK: HPK1/GLK Fold = DC50 (HPK1) / DC50 (GLK) . Table 3 Selectivity of the compounds of the invention in degrading HPK1/GLK

[3] = Pharmacokinetic properties in SD rats after gavage; assay type: in vivo; details: rat, po, 10 mg/kg, plasma
Method: The test compound is administered to SD rats by gavage at a dose of 10 mg/kg. Blood samples are collected at 0 h (before administration) and at 0.083, 0.25, 1, 2, 4, 6, 8, and 24 h after oral gavage administration. The samples are placed in anticoagulant tubes containing heparin sodium, and the mixture is thoroughly vortexed and centrifuged at 6000 rpm for 3 minutes. Plasma concentrations are determined by LC-MS/MS, and relevant pharmacokinetic parameters are calculated using Phoenix WinNonlin 8.2.0 pharmacokinetic software. Table 4 Pharmacokinetic properties of the compounds of the invention

T1 sequence (Q92918 whole entry): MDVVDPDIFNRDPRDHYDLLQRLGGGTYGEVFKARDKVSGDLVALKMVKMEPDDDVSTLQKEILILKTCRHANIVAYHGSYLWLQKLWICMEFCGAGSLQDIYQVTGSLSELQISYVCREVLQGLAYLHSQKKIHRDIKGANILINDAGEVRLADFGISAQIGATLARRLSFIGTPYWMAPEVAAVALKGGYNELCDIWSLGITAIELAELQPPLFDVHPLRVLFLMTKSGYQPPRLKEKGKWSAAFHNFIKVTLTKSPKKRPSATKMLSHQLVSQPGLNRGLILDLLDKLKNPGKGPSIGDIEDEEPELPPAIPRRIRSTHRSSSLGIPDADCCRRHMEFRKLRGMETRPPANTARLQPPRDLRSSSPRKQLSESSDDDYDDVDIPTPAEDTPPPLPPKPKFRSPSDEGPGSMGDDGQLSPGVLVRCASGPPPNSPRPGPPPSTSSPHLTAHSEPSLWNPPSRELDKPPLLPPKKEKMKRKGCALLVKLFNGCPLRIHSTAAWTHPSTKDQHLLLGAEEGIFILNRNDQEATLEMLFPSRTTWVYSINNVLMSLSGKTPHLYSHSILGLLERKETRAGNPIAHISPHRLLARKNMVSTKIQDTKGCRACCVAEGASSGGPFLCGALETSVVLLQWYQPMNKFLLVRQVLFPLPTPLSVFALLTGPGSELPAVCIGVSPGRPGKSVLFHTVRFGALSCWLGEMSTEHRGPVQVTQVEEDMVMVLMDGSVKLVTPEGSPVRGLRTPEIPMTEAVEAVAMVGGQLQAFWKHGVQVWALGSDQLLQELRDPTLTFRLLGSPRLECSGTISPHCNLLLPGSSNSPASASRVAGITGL

SMILES	DC50 (HPK1 kinase [1]) [nM]	IC50 (HPK1 kinase [2]) [nM]	HPK1/GLK Fold (HPK1/GLK)	AUC [3] [ng·h/mL]
COc1cc(-c2cnc3[nH]cc(-c4ccc(C(=O)N(C)C)cc4)c3n2)ccc1C1=CCN(CC2CN(c3ccc(N4CCC(=O)NC4=O)c(C)c3)C2)CC1 [compound 135]	< 10	< 10	++++ (1000≤Fold)	5480
Cc1cc(N2CC(CN3CC=C(c4c(C)cc(-c5cnc6[nH]cc(-c7ccc(C(=O)N(C)C)cc7)c6n5)cc4C)CC3)C2)ccc1N1CCC(=O)NC1=O [compound 014]	< 10	< 10	++++ (1000≤Fold)	11400
Cc1cc(-c2cnc3[nH]cc(-c4ccc(C(=O)N(C)C)cc4)c3c2)cc(C)c1C1=CCN(CC2CN(c3ccc(N4CCC(=O)NC4=O)c(F)c3)C2)CC1 [compound 144]	< 10	< 10	++++ (1000≤Fold)	5750
Cc1cc(-c2c[nH]c3ncc(-c4cc(C)c(C5=CCN(CC6CN(c7ccc(N8CCC(=O)NC8=O)c(F)c7)C6)CC5)c(C)c4)nc23)c(C)s1 [compound 150]	< 10	< 10	++++ (1000≤Fold)	13100
Cc1cc(-c2cnc3[nH]cc(-c4ccc(C(=O)N(C)C)cc4)c3n2)cc(C)c1C1=CCN(CC2CN(c3ccc(N4CCC(=O)NC4=O)c(F)c3)C2)CC1 [compound 049]	< 10	< 10	++++ (1000≤Fold)	9570
Cc1cc(-c2cnc3[nH]cc(-c4cnn5c4CCC5)c3n2)cc(C)c1C1=CCN(CC2CN(c3ccc(N4CCC(=O)NC4=O)c(F)c3)C2)CC1 [compound 170]	< 10	< 10	++++ (1000≤Fold)	12700
Cc1cc(-c2cnc3[nH]cc(-c4ccc(C(=O)N(C)C)cc4)c3n2)cc(C)c1C1=CCN(CC2CN(c3cnn(C4CCC(=O)NC4=O)c(=O)c3)C2)CC1 (stereo not shown) [compound 085]	< 10	< 10	++++ (1000≤Fold)	8530
